Results taken from PubChem BioAssay AID1259407 (Chemical Carcinogenesis Research Information System (CCRIS), 2018).
Activity calls are given as the source filed them. No rule for the calls is given here.

Tested on: CCRIS mutagenicity, Ames/micronucleus/aberration tests
Assay: CCRIS mutagenicity studies

`ClC(Cl)Br` was tested, and the mutagenic call (End Point: Ames Salmonella typhimurium, Test System: TA97, Metabolic Activation: Hamster, liver, S-9 (10 & 30%), Aroclor 1254, Method: Preincubation) was “inactive; negative”, the mutagenic call (End Point: Ames Salmonella typhimurium, Test System: TA97, Metabolic Activation: None, Method: Preincubation) was “inactive; negative” and the mutagenic call (End Point: Ames Salmonella typhimurium, Test System: TA97, Metabolic Activation: Rat, liver, S-9 (10 & 30%), Aroclor 1254, Method: Preincubation) was “inactive; negative”. The mutagenic call (End Point: Ames Salmonella typhimurium, Test System: TA98, Metabolic Activation: Hamster, liver, S-9 (10 & 30%), Aroclor 1254, Method: Preincubation) was “inactive; negative”, the mutagenic call (End Point: Ames Salmonella typhimurium, Test System: TA98, Metabolic Activation: None, Method: Preincubation) was “inactive; negative” and the mutagenic call (End Point: Ames Salmonella typhimurium, Test System: TA98, Metabolic Activation: Rat, liver, S-9 (10 & 30%), Aroclor 1254, Method: Preincubation) was “inactive; negative”. For the same molecule, the mutagenic call (End Point: Ames Salmonella typhimurium, Test System: TA100, Metabolic Activation: Hamster, liver, S-9 (10 & 30%), Aroclor 1254, Method: Preincubation) was “inactive; negative”, the mutagenic call (End Point: Ames Salmonella typhimurium, Test System: TA100, Metabolic Activation: None, Method: Preincubation) was “inactive; negative” and the mutagenic call (End Point: Ames Salmonella typhimurium, Test System: TA100, Metabolic Activation: Rat, liver, S-9 (10 & 30%), Aroclor 1254, Method: Preincubation) was “inactive; negative”. The mutagenic call (End Point: Ames Salmonella typhimurium, Test System: TA1535, Metabolic Activation: Hamster, liver, S-9 (10 & 30%), Aroclor 1254, Method: Preincubation) was “inactive; negative”, the mutagenic call (End Point: Ames Salmonella typhimurium, Test System: TA1535, Metabolic Activation: None, Method: Preincubation) was “inactive; negative” and the mutagenic call (End Point: Ames Salmonella typhimurium, Test System: TA1535, Metabolic Activation: Rat, liver, S-9 (10 & 30%), Aroclor 1254, Method: Preincubation) was “inactive; negative”. For the same molecule, the mutagenic call (End Point: IN VITRO CHROMOSOMAL ABERRATIONS, Test System: CHINESE HAMSTER LUNG FIBROBLAST CELLS (CHL/IU), Metabolic Activation: RAT, LIVER, S-9, PHENOBARBITAL AND 5,6-BENZOFLAVONE) was “active; positive (structural changes)”, the mutagenic call (End Point: IN VITRO CHROMOSOMAL ABERRATIONS, Test System: CHO CELLS, Metabolic Activation: NONE) was “inactive; negative” and the mutagenic call (End Point: IN VITRO CHROMOSOMAL ABERRATIONS, Test System: CHO CELLS, Metabolic Activation: RAT, LIVER, S-9, AROCLOR 1254) was “inactive; negative”. For the same molecule, the mutagenic call (End Point: In vivo micronucleus, Test System: Bone marrow polychromatic erythrocytes, Species: Mouse, Strain/Sex: B6C3F1/Male, Route: Intraperitoneal) was “inactive; negative; strain was inferred”, the mutagenic call (End Point: In vivo micronucleus, Test System: Peripheral blood normochromatic erythrocytes, Species: Mouse, Strain/Sex: B6C3F1/Female, Route: Oral) was “inactive; negative” and the mutagenic call (End Point: In vivo micronucleus, Test System: Peripheral blood normochromatic erythrocytes, Species: Mouse, Strain/Sex: B6.129-Trp53tm1Brd (N5) p53 Haploinsufficient//Male, Route: Oral) was “inactive; negative”. The mutagenic call (End Point: In vivo micronucleus, Test System: Peripheral blood normochromatic erythrocytes, Species: Mouse, Strain/Sex: B6.129-Trp53tm1Brd (N5) p53 Haploinsufficient/Female, Route: Oral) was “inactive; negative”, the mutagenic call (End Point: In vivo micronucleus, Test System: Peripheral blood normochromatic erythrocytes, Species: Mouse, Strain/Sex: B6.129-Trp53tm1Brd (N5) p53 Haploinsufficient/Male, Route: Oral) was “inactive; negative, positive results only at 350 mg/l; trend test not significant” and the mutagenic call (End Point: In vivo micronucleus, Test System: Peripheral blood normochromatic erythrocytes, Species: Mouse, Strain/Sex: FVB Tg.AC hemizygous/Female, Route: Dermal) was “inactive; negative”. The mutagenic call (End Point: In vivo micronucleus, Test System: Peripheral blood normochromatic erythrocytes, Species: Mouse, Strain/Sex: FVB Tg.AC hemizygous/Female, Route: Oral) was “inactive; negative”, the mutagenic call (End Point: In vivo micronucleus, Test System: Peripheral blood normochromatic erythrocytes, Species: Mouse, Strain/Sex: FVB Tg.AC hemizygous/Male, Route: Dermal) was “inactive; negative” and the mutagenic call (End Point: In vivo micronucleus, Test System: Peripheral blood normochromatic erythrocytes, Species: Mouse, Strain/Sex: FVB Tg.AC hemizygous/Male, Route: Oral) was “inactive; negative”. The mutagenic call (End Point: Mouse Lymphoma, Test System: L5178Y (TK+/TK-), Metabolic Activation: None, Method: Suspension/Plate) was “inactive; negative”, the mutagenic call (End Point: Mouse Lymphoma, Test System: L5178Y (TK+/TK-), Metabolic Activation: Rat, liver, S-9, Aroclor 1254, Method: Suspension/Plate) was “active; positive” and the mutagenic call (Test System: AMES SALMONELLA TYPHIMURIUM, Strain/Indicator: RSJ100, Metabolic Activation: NONE, Method: STANDARD PLATE) was “active; positive”. The mutagenic call (Test System: AMES SALMONELLA TYPHIMURIUM, Strain/Indicator: TA97, Metabolic Activation: NONE, Method: STANDARD PLATE) was “inactive; negative”, the mutagenic call (Test System: AMES SALMONELLA TYPHIMURIUM, Strain/Indicator: TA97, Metabolic Activation: RAT, LIVER, S-9, AROCLOR 1254, Method: STANDARD PLATE) was “active; positive” and the mutagenic call (Test System: AMES SALMONELLA TYPHIMURIUM, Strain/Indicator: TA98, Metabolic Activation: HAMSTER, LIVER, S-9, AROCLOR 1254, Method: PREINCUBATION) was “inactive; negative”. For the same molecule, the mutagenic call (Test System: AMES SALMONELLA TYPHIMURIUM, Strain/Indicator: TA98, Metabolic Activation: NONE, Method: PREINCUBATION) was “inactive; negative”, the mutagenic call (Test System: AMES SALMONELLA TYPHIMURIUM, Strain/Indicator: TA98, Metabolic Activation: NONE, Method: STANDARD PLATE) was “inactive; negative” and the mutagenic call (Test System: AMES SALMONELLA TYPHIMURIUM, Strain/Indicator: TA98, Metabolic Activation: RAT, LIVER, S-9, AROCLOR 1254, Method: PREINCUBATION) was “inactive; negative”. For the same molecule, the mutagenic call (Test System: AMES SALMONELLA TYPHIMURIUM, Strain/Indicator: TA100, Metabolic Activation: HAMSTER, LIVER, S-9, AROCLOR 1254, Method: PREINCUBATION) was “inactive; negative”, the mutagenic call (Test System: AMES SALMONELLA TYPHIMURIUM, Strain/Indicator: TA100, Metabolic Activation: NONE, Method: DESICCATOR) was “active; positive” and the mutagenic call (Test System: AMES SALMONELLA TYPHIMURIUM, Strain/Indicator: TA100, Metabolic Activation: NONE, Method: FLUCTUATION TEST) was “inactive; negative”. For the same molecule, the mutagenic call (Test System: AMES SALMONELLA TYPHIMURIUM, Strain/Indicator: TA100, Metabolic Activation: NONE, Method: PREINCUBATION) was “inactive; negative”, the mutagenic call (Test System: AMES SALMONELLA TYPHIMURIUM, Strain/Indicator: TA100, Metabolic Activation: NONE, Method: STANDARD PLATE) was “inactive; negative” and the mutagenic call (Test System: AMES SALMONELLA TYPHIMURIUM, Strain/Indicator: TA100, Metabolic Activation: RAT, LIVER, S-9, AROCLOR 1254, Method: FLUCTUATION TEST) was “inactive; negative”. For the same molecule, the mutagenic call (Test System: AMES SALMONELLA TYPHIMURIUM, Strain/Indicator: TA100, Metabolic Activation: RAT, LIVER, S-9, AROCLOR 1254, Method: PREINCUBATION) was “inactive; negative”, the mutagenic call (Test System: AMES SALMONELLA TYPHIMURIUM, Strain/Indicator: TA104, Metabolic Activation: NONE, Method: STANDARD PLATE) was “inactive; negative” and the mutagenic call (Test System: AMES SALMONELLA TYPHIMURIUM, Strain/Indicator: TA104, Metabolic Activation: RAT, LIVER, S-9, AROCLOR 1254, Method: STANDARD PLATE) was “active; positive”. The mutagenic call (Test System: AMES SALMONELLA TYPHIMURIUM, Strain/Indicator: TA1535 (GST+), Metabolic Activation: NONE, Method: STANDARD PLATE) was “active; positive”, the mutagenic call (Test System: AMES SALMONELLA TYPHIMURIUM, Strain/Indicator: TA1535 (GST-), Metabolic Activation: NONE, Method: STANDARD PLATE) was “inactive; negative” and the mutagenic call (Test System: AMES SALMONELLA TYPHIMURIUM, Strain/Indicator: TA1535, Metabolic Activation: HAMSTER, LIVER, S-9, AROCLOR 1254, Method: PREINCUBATION) was “inactive; negative”. For the same molecule, the mutagenic call (Test System: AMES SALMONELLA TYPHIMURIUM, Strain/Indicator: TA1535, Metabolic Activation: NONE, Method: PREINCUBATION) was “inactive; negative”, the mutagenic call (Test System: AMES SALMONELLA TYPHIMURIUM, Strain/Indicator: TA1535, Metabolic Activation: RAT, LIVER, S-9, AROCLOR 1254, Method: PREINCUBATION) was “inactive; negative” and the mutagenic call (Test System: AMES SALMONELLA TYPHIMURIUM, Strain/Indicator: TA1535, Metabolic Activation: RAT, LIVER, S-9, AROCLOR 1254, Method: STANDARD PLATE) was “inactive; negative”. The mutagenic call (Test System: AMES SALMONELLA TYPHIMURIUM, Strain/Indicator: TA1537, Metabolic Activation: HAMSTER, LIVER, S-9, AROCLOR 1254, Method: PREINCUBATION) was “inactive; negative”, the mutagenic call (Test System: AMES SALMONELLA TYPHIMURIUM, Strain/Indicator: TA1537, Metabolic Activation: NONE, Method: PREINCUBATION) was “inactive; negative” and the mutagenic call (Test System: AMES SALMONELLA TYPHIMURIUM, Strain/Indicator: TA1537, Metabolic Activation: NONE, Method: STANDARD PLATE) was “active; positive”. For the same molecule, the mutagenic call (Test System: AMES SALMONELLA TYPHIMURIUM, Strain/Indicator: TA1537, Metabolic Activation: RAT, LIVER, S-9, AROCLOR 1254, Method: PREINCUBATION) was “inactive; negative”, the mutagenic call (Test System: AMES SALMONELLA TYPHIMURIUM, Strain/Indicator: TA1537, Metabolic Activation: RAT, LIVER, S-9, AROCLOR 1254, Method: STANDARD PLATE) was “inactive; negative” and the mutagenic call (Test System: MOUSE LYMPHOMA, Strain/Indicator: L5178Y (TK+/TK-), Metabolic Activation: NONE, Method: MICROWELL) was “inactive; negative”. The mutagenic call (Test System: MOUSE LYMPHOMA, Strain/Indicator: L5178Y (TK+/TK-), Metabolic Activation: NONE, Method: SUSPENSION/PLATE) was “inactive; negative”, the mutagenic call (Test System: MOUSE LYMPHOMA, Strain/Indicator: L5178Y (TK+/TK-), Metabolic Activation: RAT, LIVER, S-9, AROCLOR 1254, Method: SUSPENSION/PLATE) was “active; positive” and the mutagenic call (Test System: MOUSE LYMPHOMA, Strain/Indicator: L5178Y (TK+/TK-), Metabolic Activation: S-9, Method: MICROWELL) was “active; positive”. The mutagenic call (Test System: UDS RAT HEPATOCYTES, Strain/Indicator: THY INCORP, Metabolic Activation: NONE, Method: AUTORADIOGRAPHY) was “inactive; negative”.
